Data published in publication PMC6332430, “Design, Synthesis and Biological Evaluation of Novel Substituted N,N′-Diaryl ureas as Potent p38 Inhibitors” (Molecules, 2015).
Read-outs that look alike come from different tables or passages of the source.

Tests used:
Assay in all cases: TR-FRET kinase assay, GFP-ATF2 ([…]-96) phosphorylation
Type in all cases: biochemical
MAPK14/p38α [1] = target: T1, MAPK14/p38α (Homo sapiens, UniProt Q16539)
p38γ = target: T2, p38γ (Homo sapiens, UniProt P53778)
T2 construct: gene MAPK12
T2 sequence (P53778 1-367): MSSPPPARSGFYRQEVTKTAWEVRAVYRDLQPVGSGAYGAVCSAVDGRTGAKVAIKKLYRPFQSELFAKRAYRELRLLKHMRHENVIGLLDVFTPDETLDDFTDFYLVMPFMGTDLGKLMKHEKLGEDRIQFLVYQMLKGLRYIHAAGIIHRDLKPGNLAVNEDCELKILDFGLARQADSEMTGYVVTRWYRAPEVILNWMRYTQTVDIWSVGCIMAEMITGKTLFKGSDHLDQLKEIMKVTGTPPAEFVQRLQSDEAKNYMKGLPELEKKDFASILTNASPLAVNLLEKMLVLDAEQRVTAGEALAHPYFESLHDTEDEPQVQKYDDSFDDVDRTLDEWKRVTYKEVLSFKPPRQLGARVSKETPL

MAPK14/p38α [2] = target: T1, MAPK14/p38α; conditions: 90 μM ATP, 0.4 μM GFP-ATF2, 10 mM MgCl2, pH 7.5, RT, 15 min preincubation; unreliable (the two tables disagree)
p38δ = target: T3, p38δ (Homo sapiens, UniProt O15264)
T3 construct: gene MAPK13
T3 sequence (O15264 1-365): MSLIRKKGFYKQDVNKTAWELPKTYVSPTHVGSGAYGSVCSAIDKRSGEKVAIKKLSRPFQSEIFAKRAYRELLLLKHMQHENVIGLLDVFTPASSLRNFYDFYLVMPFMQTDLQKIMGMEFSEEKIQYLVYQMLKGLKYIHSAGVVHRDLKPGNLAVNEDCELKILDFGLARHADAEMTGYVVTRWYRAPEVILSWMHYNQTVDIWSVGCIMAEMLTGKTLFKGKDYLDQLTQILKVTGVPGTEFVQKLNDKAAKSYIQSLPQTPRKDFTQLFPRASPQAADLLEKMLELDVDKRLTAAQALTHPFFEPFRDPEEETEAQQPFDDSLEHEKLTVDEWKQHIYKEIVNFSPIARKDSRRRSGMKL

p38β = target: T4, p38β (Homo sapiens, UniProt Q15759)
T4 construct: gene MAPK11
T4 sequence (Q15759 whole entry): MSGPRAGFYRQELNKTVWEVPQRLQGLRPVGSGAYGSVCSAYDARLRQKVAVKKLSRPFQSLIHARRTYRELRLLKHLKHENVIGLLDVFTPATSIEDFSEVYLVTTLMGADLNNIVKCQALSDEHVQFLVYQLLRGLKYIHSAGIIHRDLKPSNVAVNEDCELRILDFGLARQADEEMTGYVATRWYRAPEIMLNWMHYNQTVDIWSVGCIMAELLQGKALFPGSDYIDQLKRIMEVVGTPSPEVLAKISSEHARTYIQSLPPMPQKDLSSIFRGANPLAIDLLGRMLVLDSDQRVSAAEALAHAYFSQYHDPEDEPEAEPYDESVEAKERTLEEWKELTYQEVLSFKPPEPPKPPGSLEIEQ

T1 sequence (Q16539 2-360): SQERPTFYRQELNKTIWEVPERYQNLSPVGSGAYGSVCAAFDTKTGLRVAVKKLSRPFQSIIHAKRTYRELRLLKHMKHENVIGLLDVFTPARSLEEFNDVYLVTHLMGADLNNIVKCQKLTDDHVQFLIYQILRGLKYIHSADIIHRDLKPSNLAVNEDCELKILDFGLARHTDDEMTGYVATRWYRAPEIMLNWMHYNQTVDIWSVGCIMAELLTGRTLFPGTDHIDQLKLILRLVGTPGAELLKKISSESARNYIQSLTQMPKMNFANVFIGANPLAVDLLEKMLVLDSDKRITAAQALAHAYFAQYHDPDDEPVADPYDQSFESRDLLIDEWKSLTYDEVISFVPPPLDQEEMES

Row | IC50 (MAPK14/p38α [1]) | Structure (SMILES) | further results
1 | 1.11 ± 0.2 nM | Cc1ccc(-n2nc(C(C)(C)C)cc2NC(=O)NCc2cc(F)ccc2Oc2ccc3nc(N)sc3c2)cc1 [8b, 1-(2-((2-Aminobenzo[d]thiazol-6-yl)oxy)-5-fluorobenzyl)-3-(3-(tert-butyl)-1-(p-tolyl)-1H-pyrazol-5-yl)urea] | 
2 | 12.4 ± 0.18 nM | Cc1ccc(-n2nc(C(C)(C)C)cc2NC(=O)NCc2cc(F)ccc2Oc2ccc3nc(NC(=O)NC4CCCCC4)sc3c2)cc1 [9h, 1-(3-(Tert-butyl)-1-(p-tolyl)-1H-pyrazol-5-yl)-3-(2-((2-(3-cyclohexylureido)benzo[d]thiazol-6-yl)oxy)-5-fluorobenzyl)urea] | 
3 |  | CCNC(=O)Nc1nc2ccc(Oc3ccc(F)cc3CNC(=O)Nc3cc(C(C)(C)C)nn3-c3ccc(C)cc3)cc2s1 [9g, 1-(3-(Tert-butyl)-1-(p-tolyl)-1H-pyrazol-5-yl)-3-(2-((2-(3-ethylureido)benzo[d]thiazol-6-yl)oxy)-5-fluorobenzyl)urea] | IC50 (p38γ): 424 ± 5.75 nM; p38α IC50 (nM) ^a (MAPK14/p38α [2]): 0.844 ± 1.04 nM; IC50 (p38δ): 948.4 ± 8.35 nM; IC50 (p38β): 20.1 ± 1.4 nM
4 | 4.499 ± 0.04 nM | Cc1ccc(-n2nc(C(C)(C)C)cc2NC(=O)NCc2ccccc2Oc2ccc3nc(NC(=O)NC4CCCCC4)sc3c2)cc1 [9f, 1-(3-(Tert-butyl)-1-(p-tolyl)-1H-pyrazol-5-yl)-3-(2-((2-(3-cyclohexylureido)benzo[d]thiazol-6-yl)oxy)benzyl)urea] | 
5 | 4.28 ± 1.14 nM | COC(=O)Nc1nc2ccc(Oc3ccc(F)cc3CNC(=O)Nc3cc(C(C)(C)C)nn3-c3ccc(C)cc3)cc2s1 [9j, Methyl(6-(2-((3-(3-(tert-butyl)-1-(p-tolyl)-1H-pyrazol-5-yl)ureido)methyl)-4-fluorophenoxy)benzo[d]thiazol-2-yl)carbamate] | 
6 | 6.16 ± 0.07 nM | Cc1ccc(-n2nc(C(C)(C)C)cc2NC(=O)NCc2ccccc2Oc2ccc3nc(NC(=O)NC(C)(C)C)sc3c2)cc1 [9b, 1-(3-(Tert-butyl)-1-(p-tolyl)-1H-pyrazol-5-yl)-3-(2-((2-(3-(tert-butyl)ureido)benzo[d]thiazol-6-yl)oxy)benzyl)urea] | 
7 | 1.02 ± 0.09 nM | COC(=O)Nc1nc2ccc(Oc3ccccc3CNC(=O)Nc3cc(C(C)(C)C)nn3-c3ccc(C)cc3)cc2s1 [9c, Methyl(6-(2-((3-(3-(tert-butyl)-1-(p-tolyl)-1H-pyrazol-5-yl)ureido)methyl)phenoxy)benzo[d]thiazol-2-yl)carbamate] | 
8 |  | Cc1ccc(-n2nc(C(C)(C)C)cc2NC(=O)NCc2ccccc2Oc2ccc3nc(NC(=O)NCCCl)sc3c2)cc1 [9e, 1-(3-(Tert-butyl)-1-(p-tolyl)-1H-pyrazol-5-yl)-3-(2-((2-(3-(2-chloroethyl)ureido)benzo[d]thiazol-6-yl)oxy)benzyl)urea] | IC50 (MAPK14/p38α [1]; read-out: p38α IC50 (nM) ^a): 3.29 ± 0.25 nM
9 | 1.5 ± 0.24 nM | CCNC(=O)Nc1nc2ccc(Oc3ccccc3CNC(=O)Nc3cc(C(C)(C)C)nn3-c3ccc(C)cc3)cc2s1 [9d, 1-(3-(Tert-butyl)-1-(p-tolyl)-1H-pyrazol-5-yl)-3-(2-((2-(3-ethylureido)benzo[d]thiazol-6-yl)oxy)benzyl)urea] | IC50 (p38γ): 191 ± 7.2 nM; IC50 (p38δ): 231 ± 7.15 nM; IC50 (p38β): 17.5 ± 1.25 nM
10 | 1.31 ± 0.09 nM | COC(=O)Nc1nc2ccc(Oc3ccccc3CNC(=O)Nc3cc(C(C)(C)C)nn3-c3ccc([N+](=O)[O-])cc3)cc2s1 [9a, Methyl(6-(2-((3-(3-(tert-butyl)-1-(4-nitrophenyl)-1H-pyrazol-5-yl)ureido)methyl)phenoxy)benzo[d]thiazol-2-yl)carbamate] | 
11 | 2.878 ± 0.01 nM | CC(C)(C)c1cc(NC(=O)NCc2ccccc2Oc2ccc3nc(N)sc3c2)n(-c2ccc([N+](=O)[O-])cc2)n1 [8a, 1-(2-((2-Aminobenzo[d]thiazol-6-yl)oxy)benzyl)-3-(3-(tert-butyl)-1-(4-nitrophenyl)-1H-pyrazol-5-yl)urea] | 
12 | 7.54 ± 1.99 nM | Cc1ccc(-n2nc(C(C)(C)C)cc2NC(=O)NCc2cc(F)ccc2Oc2ccc3nc(NC(=O)NC(C)(C)C)sc3c2)cc1 [9i, 1-(3-(Tert-butyl)-1-(p-tolyl)-1H-pyrazol-5-yl)-3-(2-((2-(3-(tert-butyl)ureido)benzo[d]thiazol-6-yl)oxy)-5-fluorobenzyl)urea] | 
